Results as given in ChEMBL document CHEMBL5634083, “Targeting polyketide synthase 13 for the treatment of tuberculosis” (Eur J Med Chem, 2023).
Converted amounts (≈) assume the structure as drawn.

Experiments:
Format in all cases: functional
[1] = test system: Mycobacterium tuberculosis; experiment: Antimycobacterial activity against multi-drug resistant Mycobacterium tuberculosis
[2] = test system: Mycobacterium tuberculosis; experiment: Antibacterial activity against fluoroquinolone-resistant Mycobacterium tuberculosis H37Rv assessed as reduction in bacterial growth measured after 16 to 18 hrs by serial dilution method; details: time 16-18 hrs
[3] = test system: Mycobacterium tuberculosis; experiment: Antitubercular activity against multi-drug resistant Mycobacterium tuberculosis assessed as reduction in microbial growth measured after 3 weeks by resazurin microplate reader assay; details: 504 h

Q: Which MIC [1] does the source give for `CCOC(=O)c1c(NC(=O)c2c(F)c(F)c(F)c(F)c2F)sc2c1CCN(CC)C2` here?
A: 0.2 µM (≈ 0.0897 µg/mL)

Q: With `CC(=O)c1c(C)n(-c2ccc(N(C)C)cc2)c2ccc(O)c(CN3CCCC3)c12` as the molecule, how does the MIC90 [2] read?
A: 0.244 µM (≈ 0.0955 µg/mL)

Q: For `O=C(c1ccccc1)c1cc(Cl)ccc1OCc1nc(-c2ccc(C(F)(F)F)cc2)no1`, which MIC [3] is on record?
A: 16 µg/mL
